In one test the target is T1, TAK1-TAB1 fusion protein (Homo sapiens, UniProt O43318).
T1 construct: purchased Carna
T1 sequence (O43318 with tags, fused parts or gaps limits assumed): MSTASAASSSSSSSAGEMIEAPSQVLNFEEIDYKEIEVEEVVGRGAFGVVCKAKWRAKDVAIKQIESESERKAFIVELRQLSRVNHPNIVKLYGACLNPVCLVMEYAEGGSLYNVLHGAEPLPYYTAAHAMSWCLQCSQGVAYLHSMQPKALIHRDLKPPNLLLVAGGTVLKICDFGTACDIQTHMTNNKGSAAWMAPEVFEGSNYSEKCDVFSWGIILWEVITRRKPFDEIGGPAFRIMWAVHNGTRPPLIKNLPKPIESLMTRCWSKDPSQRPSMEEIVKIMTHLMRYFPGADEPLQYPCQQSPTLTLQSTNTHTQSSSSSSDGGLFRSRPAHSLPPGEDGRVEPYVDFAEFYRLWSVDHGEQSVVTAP
The experiment in a line: TAK1 biochemical assay (AlphaScreen, GST-MAP2K7 substrate). In general terms: Bead proximity is the source of the signal in Alpha formats.

Another test has as its system pJNK in HCT-116 cells. The experiment in a line: Phospho-JNK (Thr183/Tyr185) Meso Scale ELISA assay, TNFα-stimulated HCT-116 cells. It is filed as cell-based. Conditions: Homo sapiens, read-out: mean HCT-116 pJNK ELISA IC50 (Col. B). In outline: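 HCT-116 cells in 1% FCS medium were pretreated with compound for 4 hrs at 37° C, then stimulated with TNFα at 10 ng/mL final for 10 minutes. Lysates were taken in ice-cold lysis buffer with phosphatase and protease inhibitors, and phospho-JNK (Thr183/Tyr185) was measured by Meso Scale ELISA.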
In general terms: An ELISA detects its analyte on a solid surface through an enzyme-linked reagent.

For the next test, the system named is p-p38 in HCT-116 cells. Nature of the test: Phospho-p38 Meso Scale ELISA assay, TNFα-stimulated HCT-116 cells. Particulars: Homo sapiens, read-out: mean HCT-116 p-p38 ELISA IC50 (Col. C). The format is cell-based. The essentials:
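HCT-116 cells in 1% FCS medium for 2 h, then compound for 4 h at 37° C, then TNFα at 10 ng/mL final for 10 min. Lysates captured overnight at 4° C and phospho-p38 quantified by Meso Scale electrochemiluminescence ELISA.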

The mark [1] stands for this setting: TAK1-TAB1 fusion protein, GST-MAP2K7 substrate, read-out: mean TAK1 IC50 (Col. A).

These results are taken from patent US8378104B2 (OSI Pharmaceuticals, LLC, priority 2010, dated 2013).

Structures can show the parent of a compound that is named as a salt. Where two headings read alike, the source gives them in different places.

Usually IC50 stands for the concentration that gives 50% inhibition. For the compound `CC(=O)N1CCC(n2cc(-c3cnc(N)c4oc(-c5cc(C)c(O)c(C)c5)cc34)cn2)CC1` [Example 138, 1-(4-{4-[7-amino-2-(4-hydroxy-3,5-dimethylphenyl)furo[2,3-c]pyridin-4-yl]-1H-pyrazol-1-yl}piperidin-1-yl)ethanone], the values for the IC50 on TAK1-TAB1 fusion protein (setting [1]), with pJNK in HCT-116 cells and in the test with p-p38 in HCT-116 cells were 1000 to 10000 nM, 100 to 1000 nM and 1000 to 10000 nM, respectively.

As to `Cn1cc(-c2cnc(N)c3oc(-c4csc5cnccc45)cc23)cn1` [Example 290, 4-(1-methyl-1H-pyrazol-4-yl)-2-thieno[2,3-c]pyridin-3-yl-furo[2,3-c]pyridin-7-ylamine], the IC50 on TAK1-TAB1 fusion protein, in the test on pJNK in HCT-116 cells and with p-p38 in HCT-116 cells was 100 to 1000 nM in each case.

In the case of `CC(=O)N1CCC(n2cc(-c3cnc(N)c4oc(-c5ccc6sccc6c5)cc34)cn2)CC1` [Example 106, 1-(4-{4-[7-amino-2-(1-benzothiophen-5-yl)furo[2,3-c]pyridin-4-yl]-1H-pyrazol-1-yl}piperidin-1-yl)ethanone], the IC50 at TAK1-TAB1 fusion protein (setting [1]), in the test on pJNK in HCT-116 cells and in the test on p-p38 in HCT-116 cells was 100 to 1000 nM each time.

Regarding `CC(=O)N1CCC(n2cc(-c3cnc(N)c4oc(-c5ccsc5)cc34)cn2)CC1` [Example 174, 1-(4-{4-[7-amino-2-(thiophen-3-yl)furo[2,3-c]pyridin-4-yl]-1H-pyrazol-1-yl}piperidin-1-yl)ethanone], the IC50 at TAK1-TAB1 fusion protein (setting [1]) lay in the range of 100 to 1000 nM; with pJNK in HCT-116 cells, 1000 to 10000 nM; in the test on p-p38 in HCT-116 cells, 1000 to 10000 nM.

Turning to `Nc1ncc(-c2cnn([C@H]3CC[C@H](O)CC3)c2)c2cc(-c3ccc(F)c4cnsc34)oc12` [Example 230, trans-4-{4-[7-amino-2-(4-fluoro-1,2-benzothiazol-7-yl)furo[2,3-c]pyridin-4-yl]-1H-pyrazol-1-yl}cyclohexanol diformate salt], the IC50 on TAK1-TAB1 fusion protein (setting [1]), with pJNK in HCT-116 cells and in the test with p-p38 in HCT-116 cells was 100 to 1000 nM each time.
